Earlier results, collected in PMC12844998, “Bridging the Knowledge Gap in Harmaline’s Pharmacological Properties: A Focus on Thermodynamics and Kinetics” (Pharmaceutics, 2025).

Conditions: source not stated; cited from earlier work

Q: For `CCCCCC` [Hex, n-Hexane], which logP is on record?
A: 3.5
